Experiments:
human GYS2 = human GYS2 (Homo sapiens (Human), UniProt P54840); experiment: GYS2 coupled enzyme assay (PK/LDH); assay type: biochemical; conditions: recombinant hGYS2/GN1 protein; geometric mean of at least 2 assay runs
Description: (§1) The GYS2 coupled enzyme assay is a kinetic biochemical assay that indirectly quantifies the rate of glycogen synthesis by coupling the conversion of GYS2 substrate UDP-glucose into UDP with downstream enzymatic reactions. UDP is released from UDP-glucose as glucose monomers are linked into the growing glycogen strand by GYS2. The coupled assay then proceeds with pyruvate kinase utilizing UDP and phospho (enol) pyruvate (PEP) to form pyruvate. Lactate dehydrogenase then converts pyruvate and NADH into lactate and NAD+. Oxidation of NADH to NAD+ can be measured continuously with a plate reader by quantifying the decrease in NADH absorbance at 340 nm over time.
Compounds that inhibit the hGYS2 enzyme and, subsequently, the downstream conversion of NADH to NAD+, were tested using assay ready plates (black, clear bottom 384 well plates) in a final DMSO reaction volume of 2.5% DMSO. The Assay Buffer contained 50 mM Tris pH 7.5, 2 mM MgCl2, and 100 mM KCl. Fresh stocks of BSA at a final concentration of 0.02% and TCEP 1 mM were added before splitting buffer into hGYS2 buffer and substrate buffer. To the hGYS2 buffer, rabbit liver glycogen was added at a final concentration of 0.2% glycogen. Glucose-6-Phosphate was added at 2 mM, recombinant hGYS2/GN1 protein was added at 200 nM to the substrate buffer, phosphoenolpyruvate (PEP) was added at 2 mM, UDP-Glucose was added at 2 mM, NADH was added at 0.6 mM, and Pyruvate Kinase/Lactate Dehydrogenase was added at 20 units/mL. The reaction was initiated by mixing hGYS2 buffer and substrate buffer at a 1:1 ratio. Both buffers were plated using a liquid dispensing device with hGYS2 buffer plated first followed by the substrate buffer. Plates were spun briefly to eliminate air bubbles and are immediately read in continuous mode at an absorbance of 340 nm, for 10 time points in one-minute increments, for a total of 10 minutes. The slope from these 10 time points was normalized to the positive and negative control wells.
(§2) Unless otherwise specified, IC50 values are reported as the geometric mean of at least 2 assay runs on separate days. […] Unless otherwise specified, IC50 values are reported as the geometric mean of at least two assay runs on separate days. Each run represents the average of a technical replicate, where each compound was assayed twice in the same plate.

human GYS1 = human GYS1 (Homo sapiens (Human), UniProt P13807); experiment: GYS1 coupled enzyme assay (PK/LDH); assay type: biochemical; conditions: recombinant hGYS1/GN1 protein; geometric mean of at least 2 assay runs
Chain of human GYS1 (P13807 whole entry): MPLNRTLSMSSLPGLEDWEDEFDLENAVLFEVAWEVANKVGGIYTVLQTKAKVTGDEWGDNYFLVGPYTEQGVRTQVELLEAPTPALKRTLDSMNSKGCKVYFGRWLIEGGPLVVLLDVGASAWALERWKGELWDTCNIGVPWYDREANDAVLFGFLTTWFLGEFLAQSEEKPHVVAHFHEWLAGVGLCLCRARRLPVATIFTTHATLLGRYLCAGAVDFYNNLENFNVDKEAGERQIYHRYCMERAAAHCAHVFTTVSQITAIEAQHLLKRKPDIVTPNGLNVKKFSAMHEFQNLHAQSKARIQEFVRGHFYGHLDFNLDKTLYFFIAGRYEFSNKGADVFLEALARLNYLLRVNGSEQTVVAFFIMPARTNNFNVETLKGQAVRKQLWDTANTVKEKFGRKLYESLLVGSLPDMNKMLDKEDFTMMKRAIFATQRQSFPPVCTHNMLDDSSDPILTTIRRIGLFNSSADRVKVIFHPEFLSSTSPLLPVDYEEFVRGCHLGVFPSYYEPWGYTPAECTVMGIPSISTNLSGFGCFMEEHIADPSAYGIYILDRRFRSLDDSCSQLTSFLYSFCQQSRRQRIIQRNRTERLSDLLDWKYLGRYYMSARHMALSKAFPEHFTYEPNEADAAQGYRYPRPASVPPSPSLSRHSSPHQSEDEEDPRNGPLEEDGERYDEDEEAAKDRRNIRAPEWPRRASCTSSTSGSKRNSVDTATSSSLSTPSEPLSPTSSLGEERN
Chain of human GYS1 (P46976 whole entry partner): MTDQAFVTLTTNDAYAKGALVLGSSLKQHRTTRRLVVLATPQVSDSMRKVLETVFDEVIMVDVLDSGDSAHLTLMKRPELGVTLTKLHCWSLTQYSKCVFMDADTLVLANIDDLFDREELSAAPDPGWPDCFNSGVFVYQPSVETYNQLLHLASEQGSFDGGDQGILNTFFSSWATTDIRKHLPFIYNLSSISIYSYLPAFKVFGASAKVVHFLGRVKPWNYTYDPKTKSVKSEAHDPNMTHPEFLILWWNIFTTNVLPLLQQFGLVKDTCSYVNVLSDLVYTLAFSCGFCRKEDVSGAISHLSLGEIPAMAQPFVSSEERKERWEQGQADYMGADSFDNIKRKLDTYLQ
Description: as §1, with “GYS1” for “GYS2”, “GYS1.” for “GYS2.”
Compounds that inhibit the hGYS1 enzyme and, subsequently, the downstream conversion of NADH to NAD+, were tested using assay ready plates (black, clear bottom 384 well plates) in a final DMSO reaction volume of 2.5% DMSO. The Assay Buffer contained 50 mM Tris pH 7.5, 2 mM MgCl2, and 100 mM KCl. Fresh stocks of BSA at a final concentration of 0.02% and TCEP at 1 mM were added before splitting buffer into hGYS1 buffer and substrate buffer. To the hGYS1 buffer, rabbit liver glycogen was added at a final concentration of 0.2% glycogen. Glucose-6-Phosphate was added at 1 mM, recombinant hGYS1/GN1 protein was added at 50 nM to the substrate buffer, phosphoenolpyruvate (PEP) was added at 2 mM, UDP-Glucose was added at 0.8 mM, NADH) was added at 0.6 mM, and Pyruvate Kinase/Lactate Dehydrogenase was added at 20 units/mL. The reaction was initiated by mixing hGYS1 buffer and substrate buffer at a 1:1 ratio. Both buffers were plated using a liquid dispensing device with hGYS1 buffer plated first followed by the substrate buffer. Plates were spun briefly to eliminate air bubbles and are immediately read in continuous mode at an absorbance of 340 nm, for 10 time points in one-minute increments, for a total of 10 minutes. The slope from these 10 time points was normalized to the positive and negative control wells.
Unless otherwise specified, IC50 values are reported as the geometric mean of at least 2 assay runs on separate days. Each run represents the average of a technical replicate, where each compound was assayed twice in the same plate.

[1] = target: hGYS1 enzyme, glycogen synthesis in HeLa cells (Homo sapiens (Human), UniProt P13807); experiment: GYS1 cell based assay (glycogen synthesis in HeLa cells, Glucose-glo); conditions: starved HeLa cells, 24 h incubation; geometric mean of at least 2 assay runs; read-out: Cellular IC50
Chain of hGYS1 enzyme, glycogen synthesis in HeLa cells (P13807 whole entry): as the sequence (P13807 whole entry) above
Description: The GYS1 cell based assay is a bioluminescent assay that quantifies the glucose resulting from glycogen digestion; the quantified glucose is an indirect measure of GYS1 glycogen synthesis. Newly synthesized glycogen is digested using Glucoamylase; the resulting glucose is quantified by using the Glucose-glo assay kit from Promega. Glucose-glo works by coupling glucose oxidation and NADH production with a bioluminescent system that is activated with NADH. Glucose is oxidized by Glucose dehydrogenase and the reaction reduces NAD+ to NADH; NADH activates Reductase which reduces a pro-luciferin Reductase Substrate to luciferin. Luciferin is detected in a luciferase reaction using Ultra-Glo rLuciferase and ATP, and the luminesce produced is proportional to the glucose in the sample. The luminescence is measured as a single point read in a plate reader.
Compounds that inhibit the hGYS1 enzyme and, subsequently, the glycogen synthesis in cells, were tested using assay ready plates (white, clear bottom 384 well plates) in a final DMSO reaction volume of 1% DMSO. Compounds in the assay ready plates were mixed with media with no additives, except for 20 mM glucose prior to cell addition. HeLa cells were starved in media with no additives, except for 1× Glutamax for 24 h. Starved HeLa cells were plated, in a 1:1 ratio to the media in the assay ready plate and incubated for 24 h at 37° C. and 5% CO2. Cells were washed in 1×PBS buffer and lysed in lysis buffer containing 50% 1×PBS and 25% 0.3 N HCl of the final volume in the well or reaction volume; cells were incubated with lysis buffer for 10 minutes and quenched with the remaining 25% of the reaction volume that consisted of 450 mM Tris pH 8.0. Lysates were mixed in a 1:1 ratio with Glucoamylase in 100 mM Sodium Acetate buffer, pH 5.3; the mixture was incubated for 1 h at 37° C. The digested lysate was mixed in a 1:1 ratio with Glucose-glo detection mixture as per vendor recommendations (Luciferase detection buffer, Reductase, Reductase substrate, Glucose dehydrogenase, and NAD) in read-out plates (solid white 384-well plates) and incubated for 1 h at RT. The plates were read using a plate reader with luminescence capabilities. Each compound concentration Relative Luminescence Unit (RLU) was averaged and normalized to the average RLU of the positive and negative controls to obtain a percentage inhibition. The normalized data vs. concentration was plotted; to determine the half-maximal concentration (IC50), the Levenberg-Marquardt algorithm was used to fit a Hill equation to the dose response data.
as §2

Chain of human GYS2 (P54840 whole entry): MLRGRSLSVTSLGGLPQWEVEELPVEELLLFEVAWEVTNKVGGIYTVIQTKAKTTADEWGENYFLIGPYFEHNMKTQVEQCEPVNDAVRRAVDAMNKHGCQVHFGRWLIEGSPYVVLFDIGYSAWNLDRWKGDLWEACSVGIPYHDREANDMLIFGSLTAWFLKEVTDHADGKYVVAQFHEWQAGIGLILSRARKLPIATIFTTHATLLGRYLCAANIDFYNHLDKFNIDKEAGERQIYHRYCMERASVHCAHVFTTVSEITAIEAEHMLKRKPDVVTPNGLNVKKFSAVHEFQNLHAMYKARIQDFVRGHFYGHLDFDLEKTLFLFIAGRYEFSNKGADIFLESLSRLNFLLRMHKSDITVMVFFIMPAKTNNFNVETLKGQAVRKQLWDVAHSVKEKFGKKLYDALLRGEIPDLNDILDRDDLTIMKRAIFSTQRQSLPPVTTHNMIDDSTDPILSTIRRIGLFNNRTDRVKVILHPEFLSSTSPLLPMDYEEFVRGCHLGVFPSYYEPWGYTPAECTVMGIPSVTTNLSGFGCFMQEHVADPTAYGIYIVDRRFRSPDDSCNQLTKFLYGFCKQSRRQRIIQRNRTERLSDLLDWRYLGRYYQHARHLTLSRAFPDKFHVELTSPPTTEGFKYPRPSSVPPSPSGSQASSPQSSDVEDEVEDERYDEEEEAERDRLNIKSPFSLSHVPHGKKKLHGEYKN
Chain of human GYS2 (P46976 whole entry partner): as the sequence (P46976 whole entry partner) above

Structure (SMILES)	IC50 (human GYS2)	IC50 (human GYS1)	IC50 [1]
Cc1ccccc1[C@H](NC(=O)[C@@H]1CCC[C@@H]1C(=O)O)c1ccc(C(C)C)cc1 [Compound 40, (1S,2R)-2-(((R)-(4-isopropylphenyl)(o-tolyl)methyl)carbamoyl)cyclopentane-1-carboxylic acid]	10.8 µM	0.39 µM	–
CC(C)c1ccc([C@@H](NC(=O)[C@@H]2CCCC[C@@H]2C(=O)O)c2cccs2)cc1 [Compound 42, (1S,2R)-2-(((R)-(4-isopropylphenyl)(thiophen-2-yl)methyl)carbamoyl)cyclohexane-1-carboxylic acid]	> 77.6 µM	0.961 µM	–
COc1ccccc1[C@H](NC(=O)[C@@H]1CCC[C@@H]1C(=O)O)c1ccc(C(C)C)cc1 [Compound 39, (1S,2R)-2-(((R)-(4-isopropylphenyl)(2-methoxyphenyl)methyl)carbamoyl)cyclopentane-1-carboxylic acid]	66.4 µM	3.4 µM	41.3 µM
O=C(O)[C@H]1CCC[C@H]1C(=O)N[C@@H](c1ccccc1)c1ccc(C2CCC2)cn1 [Compound 15, (1S,2R)-2-(((S)-(5-cyclobutylpyridin-2-yl)(phenyl)methyl)carbamoyl)cyclopentane-1-carboxylic acid]	> 100 µM	0.497 µM	8.49 µM
Cc1ccccc1[C@H](NC(=O)[C@@H]1CCC[C@@H]1C(=O)O)c1ccc(C2CC2)cc1 [Compound 26, (1S,2R)-2-(((R)-(4-cyclopropylphenyl)(o-tolyl)methyl)carbamoyl)cyclopentane-1-carboxylic acid]	15.5 µM	0.795 µM	21.6 µM
CC(C)c1ccc(C(NC(=O)C2CCCC2C(=O)O)c2cccs2)cc1 (single isomer, unassigned) [Compound 44, (1R or 1S,2S or 2R)-2-(((R or S)-(4-isopropylphenyl)(thiophen-2-yl)methyl)carbamoyl)cyclopentane-1-carboxylic acid]	11.7 µM	12.9 µM	–
CC(C)c1ccc([C@@H](NC(=O)[C@@H]2CCC[C@@H]2C(=O)O)c2cccs2)cc1 [Compound 45, (1S,2R)-2-(((R)-(4-isopropylphenyl)(thiophen-2-yl)methyl)carbamoyl)cyclopentane-1-carboxylic acid]	98 µM	0.364 µM	6.6 µM
CC(C)c1ccc([C@@H](NC(=O)[C@@H]2CCC[C@@H]2C(=O)O)c2cccc3c2NC(=O)CC3)cc1 [Compound 31, (1S,2R)-2-(((R)-(4-isopropylphenyl)(2-oxo-1,2,3,4-tetrahydroquinolin-8-yl)methyl)carbamoyl)cyclopentane-1-carboxylic acid]	> 100 µM	1.09 µM	12.3 µM
CC(C)c1ccc([C@@H](NC(=O)[C@@H]2CCC[C@@H]2C(=O)O)c2ccccc2)nc1 [Compound 36, (1S,2R)-2-(((S)-(5-isopropylpyridin-2-yl)(phenyl)methyl)carbamoyl)cyclopentane-1-carboxylic acid]	> 100 µM	0.837 µM	–
CC(C)c1ccc([C@@H](NC(=O)[C@@H]2CCC[C@@H]2C(=O)O)c2ccccc2)cc1 [Compound 41, (1S,2R)-2-(((S)-(4-isopropylphenyl)(phenyl)methyl)carbamoyl)cyclopentane-1-carboxylic acid]	> 87.1 µM	0.637 µM	–
O=C(O)[C@H]1CCC[C@H]1C(=O)N[C@@H](c1ccccc1)c1ccc(C2CCC2)cc1 [Compound 34, (1S,2R)-2-(((S)-(4-cyclobutylphenyl)(phenyl)methyl)carbamoyl)cyclopentane-1-carboxylic acid]	67.1 µM	0.426 µM	–
CC(C)c1ccc(C(NC(=O)C2CCCC2C(=O)O)c2cccs2)cc1 (single isomer, unassigned) [Compound 46, (1S or 1R,2R or 2S)-2-(((S or R)-(4-isopropylphenyl)(thiophen-2-yl)methyl)carbamoyl)cyclopentane-1-carboxylic acid]	> 250 µM	> 99.9 µM	–
CC(C)c1ccc([C@@H](NC(=O)[C@@H]2CCC[C@@H]2C(=O)O)c2ccccc2NC(N)=O)cc1F [Compound 24, (1S,2R)-2-(((R)-(3-fluoro-4-isopropylphenyl)(2-ureidophenyl)methyl)carbamoyl)cyclopentane-1-carboxylic acid]	–	2.82 µM	92 µM
CC(C)c1ccc([C@@H](NC(=O)[C@@H]2CCC[C@@H]2C(=O)O)c2cccc3[nH]c(=O)oc23)cc1 [Compound 9, (1S,2R)-2-(((R)-(4-isopropylphenyl)(2-oxo-2,3-dihydrobenzo[d]oxazol-7-yl)methyl)carbamoyl)cyclopentane-1-carboxylic acid]	–	0.879 µM	> 100 µM
CC(C)c1ccc(C(NC(=O)C2CCCC2C(=O)O)c2cccs2)cc1 (single isomer, unassigned) [Compound 43, (1R or 1S,2S or 2R)-2-(((S or R)-(4-isopropylphenyl)(thiophen-2-yl)methyl)carbamoyl)cyclopentane-1-carboxylic acid]	> 250 µM	19.8 µM	–
CC(C)c1ccc([C@@H](NC(=O)[C@@H]2CCC[C@@H]2C(=O)O)c2cccc3c2NC(=O)C3)cc1 [Compound 30, (1S,2R)-2-(((R)-(4-isopropylphenyl)(2-oxoindolin-7-yl)methyl)carbamoyl)cyclopentane-1-carboxylic acid]	–	1.61 µM	31.3 µM

Reference: patent publication US20260021085A1, “CYCLOALKYL CARBOXYLIC ACID DERIVATIVES AS INHIBITORS OF GLYCOGEN SYNTHASE 1 (GYS1) AND METHODS OF USE THEREOF” (Maze Therapeutics, Inc., priority 2022, published 2026)
